Assay results published in patent US20120277209A1, “PYRAZINE COMPOUNDS AS PHOSPHODIESTERASE 10 INHIBITORS” (Amgen Inc., priority 2009, published 2012).

Each compound was assayed against PDE10 (UniProt Q9Y233) (assay: PDE10 enzyme inhibition, IMAP TR-FRET assay (MPDE10A7 Enzyme Activity and Inhibition)). Conditions: IC50 class against PDE10; read-out: IC50.
Type: biochemical
Summary of the method: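 IMAP TR-FRET read-out of PDE10 hydrolysis of fluorescein-cAMP or -cGMP (60 min, room temperature), after a 30 min compound-enzyme preincubation. Enzyme source was PDE10A or tissue homogenate. Averaged IC50s are reported as five range classes.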

IC50 | Structure (SMILES)
< 0.025 µM | CN1CCC(c2nccnc2Oc2ccc(Nc3nc4ccccc4s3)cc2)CC1 [Example 237, N-(4-(3-(1-methylpiperidin-4-yl)pyrazin-2-yloxy)phenyl)benzo [d]thiazol-2-amine]
< 0.025 µM | CC(=O)OC(C)C(=O)N1CCC(c2nccnc2Oc2ccc(C(=O)c3nc4ccccc4[nH]3)cc2)CC1 (stereo not shown) [Example 238, 1-(4-(3-(4-(1H-benzo[d]imidazole-2-carbonyl)phenoxy)pyrazin-2-yl)piperidin-1-yl)-1-oxopropan-2-yl acetate]
< 0.025 µM | CC(O)C(=O)N1CCC(c2nccnc2Oc2ccc(Nc3nc4ccccc4s3)cc2)CC1 (stereo not shown) [Example 239, 1-(4-(3-(4-(benzo[d]thiazol-2-ylamino)phenoxy)pyrazin-2-yl)piperidin-1-yl)-2-hydroxypropan-1-one]
< 0.025 µM | CC(=O)N1CCC(c2nccnc2Oc2ccc(C(=O)c3nc4ccccc4[nH]3)cc2)C1 (stereo not shown) [Example 240, 1-(3-(3-(4-(1H-benzo[d]imidazole-2-carbonyl)phenoxy)pyrazin-2-yl)pyrrolidin-1-yl)ethanone]
< 0.025 µM | CC(=O)N1CCC(c2nccnc2Oc2ccc(Nc3nc4ccccc4s3)cc2)C1 (stereo not shown) [Example 241, 1-(3-(3-(4-(benzo[d]thiazol-2-ylamino)phenoxy)pyrazin-2-yl)pyrrolidin-1-yl)ethanone]
< 0.025 µM | CC(=O)N1CCC(c2nccnc2Oc2ccc(C(=O)c3nc4ccccc4n3C)cc2)CC1 [Example 242, 1-(4-(3-(4-(1-methyl-1H-benzo[d]imidazole-2-carbonyl)phenoxy)pyrazin-2-yl)piperidin-1-yl)ethanone]
< 0.025 µM | COCC(=O)N1CCC(c2nccnc2Oc2ccc(C(=O)c3nc4ccccc4n3C)cc2)CC1 [Example 243, 2-methoxy-1-(4-(3-(4-(1-methyl-1H-benzo[d]imidazole-2-carbonyl)phenoxy)pyrazin-2-yl)piperidin-1-yl)ethanone]
< 0.025 µM | CC(=O)OCC(=O)N1CCC(c2nccnc2Oc2ccc(C(=O)c3nc4ccccc4[nH]3)cc2)CC1 [Example 244, 2-(4-(3-(4-(1H-benzo[d]imidazole-2-carbonyl)phenoxy)pyrazin-2-yl)piperidin-1-yl)-2-oxoethyl acetate]
< 0.025 µM | CN(C)CC(=O)N1CCC(c2nccnc2Oc2ccc(C(=O)c3nc4ccccc4[nH]3)cc2)CC1 [Example 245, 1-(4-(3-(4-(1H-benzo[d]imidazole-2-carbonyl)phenoxy)pyrazin-2-yl)piperidin-1-yl)-2-(dimethylamino) ethanone]
< 0.025 µM | CN(C)CC(=O)N1CCC(c2nccnc2Oc2ccc(Nc3nc4ccccc4s3)cc2)CC1 [Example 246, 1-(4-(3-(4-(benzo[d]thiazol-2-ylamino)phenoxy)pyrazin-2-yl)piperidin-1-yl)-2-(dimethylamino) ethanone]
< 0.025 µM | N#CCC(=O)N1CCC(c2nccnc2Oc2ccc(C(=O)c3nc4ccccc4[nH]3)cc2)CC1 [Example 247, 3-(4-(3-(4-(1H-benzo[d]imidazole-2-carbonyl)phenoxy)pyrazin-2-yl)piperidin-1-yl)-3-oxopropanenitrile]
< 0.025 µM | CC(=O)N1CCC(c2nccnc2Oc2ccc(Nc3nc4ccccc4s3)cc2F)CC1 [Example 248, 1-(4-(3-(4-(benzo[d]thiazol-2-ylamino)-2-fluorophenoxy)pyrazin-2-yl)piperidin-1-yl)ethanone]
0.25 to 1 µM | CC(=O)N1CCC(c2nccnc2Oc2ccc(Nc3nc4ccccc4s3)nc2)CC1 [Example 249, 1-(4-(3-(6-(benzo[d]thiazol-2-ylamino)pyridin-3-yloxy)pyrazin-2-yl)piperidin-1-yl)ethanone]
< 0.025 µM | CC(=O)N1CC(c2nccnc2Oc2ccc(C(=O)c3nc4ccccc4[nH]3)cc2)C1 [Example 250, 1-(3-(3-(4-(1H-benzo[d]imidazole-2-carbonyl)phenoxy)pyrazin-2-yl)azetidin-1-yl)ethanone]
< 0.025 µM | CN1CCC(c2nccnc2Oc2ccc(C(=O)c3nc4ccccc4[nH]3)cc2)=CC1=O [Example 252, 4-(3-(4-(1H-benzo[d]imidazole-2-carbonyl)phenoxy)pyrazin-2-yl)-1-methyl-5,6-dihydropyridin-2(1H)-one]
< 0.025 µM | CN1CCC(c2nccnc2Oc2ccc(C(=O)c3nc4ccccc4[nH]3)cc2)CC1=O (stereo not shown) [Example 253, 4-(3-(4-(1H-benzo[d]imidazole-2-carbonyl)phenoxy)pyrazin-2-yl)-1-methylpiperidin-2-one]
< 0.025 µM | O=C(c1ccc(Oc2nccnc2C(=O)NCCc2ccccc2)cc1)c1nc2ccccc2[nH]1 [Example 254, 3-(4-(1H-benzo[d]imidazole-2-carbonyl)phenoxy)-N-phenethylpyrazine-2-carboxamide]
< 0.025 µM | O=C(c1ccc(Oc2nccnc2C(=O)NCCc2ccc(C(F)(F)F)cc2)cc1)c1nc2ccccc2[nH]1 [Example 255, 3-(4-(1H-benzo[d]imidazole-2-carbonyl)phenoxy)-N-(4-(trifluoromethyl)phenethyl) pyrazine-2-carboxamide]
0.025 to 0.1 µM | COC[C@H](C)NC(=O)c1nccnc1Oc1ccc(C(=O)c2nc3ccccc3[nH]2)cc1 [Example 256, (S)-3-(4-(1H-benzo[d]imidazole-2-carbonyl)phenoxy)-N-(1-methoxypropan-2-yl)pyrazine-2-carboxamide]
< 0.025 µM | O=C(c1ccc(Oc2nccnc2C(=O)NCCc2ccccn2)cc1)c1nc2ccccc2[nH]1 [Example 257, 3-(4-(1H-benzo[d]imidazole-2-carbonyl)phenoxy)-N-(2-(pyridin-2-yl)ethyl)pyrazine-2-carboxamide]
0.025 to 0.1 µM | O=C(c1ccc(Oc2nccnc2C(=O)NCCO)cc1)c1nc2ccccc2[nH]1 [Example 258, 3-(4-(1H-benzo[d]imidazole-2-carbonyl)phenoxy)-N-(2-hydroxyethyl)pyrazine-2-carboxamide]
< 0.025 µM | O=C(c1ccc(Oc2nccnc2C(=O)NC2(Cc3ccccc3)CC2)cc1)c1nc2ccccc2[nH]1 [Example 260, 3-(4-(1H-benzo[d]imidazole-2-carbonyl)phenoxy)-N-(1-benzylcyclopropyl) pyrazine-2-carboxamide]

Same assay, conditions: PDE10 enzyme inhibition; chiral compounds separated from racemic mixtures; read-out: IC50

IC50 | Structure (SMILES)
< 0.025 µM | N#C[C@@H]1CCN(c2nccnc2Oc2ccc(C(=O)c3nc4ccccc4[nH]3)cc2)C1 [Example 261, (R)-1-(3-(4-(1H-benzo[d]imidazole-2-carbonyl)phenoxy)pyrazin-2-yl)pyrrolidine-3-carbonitrile]
< 0.025 µM | N#C[C@H]1CCN(c2nccnc2Oc2ccc(C(=O)c3nc4ccccc4[nH]3)cc2)C1 [Example 262, (S)-1-(3-(4-(1H-benzo[d]imidazole-2-carbonyl)phenoxy)pyrazin-2-yl)pyrrolidine-3-carbonitrile]
< 0.025 µM | CCOC(=O)[C@@H]1CCCN(c2nccnc2Oc2ccc(C(=O)c3nc4ccccc4[nH]3)cc2)C1 [Example 263, (R)-ethyl 1-(3-(4-(1H-benzo[d]imidazole-2-carbonyl)phenoxy)pyrazin-2-yl)piperidine-3-carboxylate]
< 0.025 µM | CCOC(=O)[C@H]1CCCN(c2nccnc2Oc2ccc(C(=O)c3nc4ccccc4[nH]3)cc2)C1 [Example 264, (S)-ethyl 1-(3-(4-(1H-benzo[d]imidazole-2-carbonyl)phenoxy)pyrazin-2-yl)piperidine-3-carboxylate]
< 0.025 µM | COC(=O)[C@H]1CCN(c2nccnc2Oc2ccc(C(=O)c3nc4ccccc4[nH]3)cc2)C1 [Example 265, (S)-methyl 1-(3-(4-(1H-benzo[d]imidazole-2-carbonyl)phenoxy)pyrazin-2-yl)pyrrolidine-3-carboxylate]
< 0.025 µM | COC(=O)[C@@H]1CCN(c2nccnc2Oc2ccc(C(=O)c3nc4ccccc4[nH]3)cc2)C1 [Example 266, (R)-methyl 1-(3-(4-(1H-benzo[d]imidazole-2-carbonyl)phenoxy)pyrazin-2-yl)pyrrolidine-3-carboxylate]
< 0.025 µM | C[C@@H]1CN(c2nccnc2Oc2ccc(Nc3nc4ccccc4s3)cc2)CC(=O)N1 [Example 267, (R)-4-(3-(4-(benzo[d]thiazol-2-ylamino)phenoxy)pyrazin-2-yl)-6-methylpiperazin-2-one]
< 0.025 µM | C[C@H]1CN(c2nccnc2Oc2ccc(Nc3nc4ccccc4s3)cc2)CC(=O)N1 [Example 268, (S)-4-(3-(4-(benzo[d]thiazol-2-ylamino)phenoxy)pyrazin-2-yl)-6-methylpiperazin-2-one]
< 0.025 µM | O=C(c1ccc(Oc2nccnc2[C@@H]2CCC[C@H](O)C2)cc1)c1nc2ccccc2[nH]1 [Example 269, (1H-benzo[d]imidazol-2-yl)(4-(3-((1R,3S)-3-hydroxycyclohexyl)pyrazin-2-yloxy)phenyl) methanone]
< 0.025 µM | O=C(c1ccc(Oc2nccnc2[C@H]2CCC[C@@H](O)C2)cc1)c1nc2ccccc2[nH]1 [Example 270, (1H-benzo[d]imidazol-2-yl)(4-(3-((1S,3R)-3-hydroxycyclohexyl)pyrazin-2-yloxy)phenyl) methanone]
< 0.025 µM | O[C@H]1CCC[C@@H](c2nccnc2Oc2ccc(Nc3nc4ccccc4s3)cc2)C1 [Example 271, (1S,3R)-3-(3-(4-(benzo[d]thiazol-2-ylamino)phenoxy)pyrazin-2-yl)cyclohexanol]
< 0.025 µM | O[C@@H]1CCC[C@H](c2nccnc2Oc2ccc(Nc3nc4ccccc4s3)cc2)C1 [Example 272, (1R,3S)-3-(3-(4-(benzo[d]thiazol-2-ylamino)phenoxy)pyrazin-2-yl)cyclohexanol]
< 0.025 µM | O=C(c1ccc(Oc2nccnc2[C@H]2CCC[C@H](O)C2)cc1)c1nc2ccccc2[nH]1 [Example 273, (1H-benzo[d]imidazol-2-yl)(4-(3-((1S,3S)-3-hydroxycyclohexyl)pyrazin-2-yloxy)phenyl) methanone]
< 0.025 µM | O[C@H]1CCC[C@H](c2nccnc2Oc2ccc(Nc3nc4ccccc4s3)cc2)C1 [Example 275, (1S,3S)-3-(3-(4-(benzo[d]thiazol-2-ylamino)phenoxy)pyrazin-2-yl)cyclohexanol]
< 0.025 µM | O[C@@H]1CCC[C@@H](c2nccnc2Oc2ccc(Nc3nc4ccccc4s3)cc2)C1 [Example 276, (1R,3R)-3-(3-(4-(benzo[d]thiazol-2-ylamino)phenoxy)pyrazin-2-yl)cyclohexanol]
